“And” between values parts separate entries of the source, which are not always exact repeats. Identical values can stand only once.
SMILES | melting point
C/C(CCc1oc2ccc(Cl)cc2c1-c1ccc(C)o1)=N\O | 115 °C
COc1ccc(-c2csc(/C(C#N)=C/c3ccc(Cl)cc3Cl)n2)cc1 | 143 °C
N#CC(=Cc1cccc(O)c1)C1N=c2ccccc2=N1 | 300 °C
O=C1CCC(c2ccccc2)c2ccccc21 (centres undefined) [1(2H)-Naphthalenone, 3,4-dihydro-4-phenyl-] | 75 °C
S=P(N1CC1)(N1CC1)N1CC1 [1,1',1''-Phosphorothioyltriaziridine] | 51.5 °C
OC(C(F)(F)F)C(F)(F)F [1,1,1,3,3,3-Hexafluoropropan-2-ol] | -3 °C
CC(CO)(CO)CO [1,1,1-tris(hydroxymethyl)ethane] | 190 °C
OC(c1ccccc1)(c1ccccc1)C(O)(c1ccccc1)c1ccccc1 [1,1,2,2-Tetraphenylethane-1,2-diol] | 171 °C
ClC(Cl)C(Cl)Cl [1,1,2,2-tetrachloroethane] | -43 °C
C#CC(O)(c1ccccc1)c1ccccc1 [1,1-diphenyl-2-propyn-1-ol] | 46 °C
OC1CC2=C(CC=CC2)CC1O (centres undefined) [1,2,3,4,5,8-hexahydronaphthalene-2,3-diol] | 121 °C
Fc1ccc(F)c(F)c1F [1,2,3,4-tetrafluorobenzene] | -42 °C
Cc1ccc(C)c(C)c1C [1,2,3,4-tetramethylbenzene] | -6 °C
Clc1cc(Cl)c(Cl)c(Cl)c1 [1,2,3,5-tetrachlorobenzene] | 53 °C and 55 °C and 51.5 °C
Clc1cccc(Cl)c1Cl [1,2,3-Trichlorobenzene] | 53 °C
c1c[nH]nn1 [1,2,3-triazole] | 24 °C
BrCC(Br)CBr [1,2,3-tribromopropane] | 17 °C
Clc1cccc(Cl)c1Cl [1,2,3-trichlorobenzene] | 54 °C
COc1cccc(OC)c1OC [1,2,3-trimethoxybenzene] | 45 °C
Clc1cc(Cl)c(Cl)cc1Cl [1,2,4,5-Tetrachlorobenzene] | 139 °C
Brc1cc(Br)c(Br)cc1Br [1,2,4,5-tetrabromobenzene] | 182 °C
Clc1ccc(Cl)c(Cl)c1 [1,2,4-Trichlorobenzene] | 17 °C
Sc1nnc2ccccn12 [1,2,4-triazolo[4,3-a]pyridine-3-thiol] | 210 °C
Brc1ccc(Br)c(Br)c1 [1,2,4-tribromobenzene] | 43 °C (2×) and 44 °C
Clc1cc(Cl)c(I)cc1Cl [1,2,4-trichloro-5-iodobenzene] | 104 °C

SMILES | melting point
Clc1ccc(Cl)c(Cl)c1 [1,2,4-trichlorobenzene] | 17 °C
Cc1ccc(C)c(C)c1 [1,2,4-trimethylbenzene] | -44 °C
OCCCCC(O)CO (centres undefined) [1,2,6-hexanetriol] | -20 °C
c1cc2c3c(cccc3c1)CC2 [1,2-Dihydroacenaphthylene] | 95 °C
c1ccc(NNc2ccccc2)cc1 [1,2-Diphenylhydrazine] | 125 °C
CP(C)CCP(C)C [1,2-bis(dimethylphosphino)ethane] | 180 °C
CCC(Br)CBr (centres undefined) [1,2-dibromobutane] | -65 °C
BrCCBr [1,2-dibromoethane] [listing 1 of 2 here] | 10 °C
BrCCBr [1,2-dibromoethane] [listing 2 of 2 here] | 10 °C
CC(Cl)CCl (centres undefined) [1,2-dichloropropane] | -100 °C
ICCI [1,2-diiodoethane] [listing 1 of 2 here] | 82 °C
ICCI [1,2-diiodoethane] [listing 2 of 2 here] | 81 °C
BrCCCBr [1,3-dibromopropane] | -34 °C
Cl/C=C/CCl [1,3-dichloropropene, cis trans] | -84 °C
O=C1C=CC(=O)C=C1 [1,4-Benzoquinone] | 114 °C
Brc1ccc(Br)cc1 [1,4-Dibromobenzene] | 88 °C
O=C1C=CC(=O)c2ccccc21 [1,4-Naphthoquinone] | 126 °C
Brc1ccc(Br)cc1 [1,4-dibromobenzene] | 88 °C
BrCCCCBr [1,4-dibromobutane] | -20 °C
Clc1ccc(Cl)cc1 [1,4-dichlorobenzene] | 54 °C
ICCCCI [1,4-diiodobutane] | 6 °C
Nc1ccc(N)cc1 [1,4-phenylenediamine] | 142 °C
C1CCc2nnnn2CC1 [1,5-pentamethylene-1h-tetrazole] | 60 °C
N#CCCCCCCC#N [1,6-dicyanohexane] | -3 °C

Continued, values first:

melting point | SMILES
-2 °C | CC(O)CN (racemic) [dl-1-amino-2-propanol]
159 °C | O=C[C@H](O)[C@@H](O)[C@@H](O)CO (racemic) [dl-arabinose]
293 °C | CC(C)CC(N)C(=O)O (stereo in doubt) [D-Leucine]
82 °C | CC(=O)OC[C@H]1O[C@@H](OC(C)=O)[C@H](OC(C)=O)[C@@H]1OC(C)=O (stereo in doubt) [beta-D-ribofuranose 1,2,3,5-tetraacetate]
-8.5 °C | CCCCCC=CCC=CCCCCCCCC(=O)O (stereo in doubt) [linoleic acid]
-60 °C | C[C@@H](O)CO [1,2-Propanediol]
81 °C | Cc1ccc(CCc2ccc(C)cc2)cc1 [1,2-di(p-tolyl)ethane]
44 °C | CCOc1ccccc1OCC [1,2-diethoxybenzene]
-31 °C | CCc1ccccc1CC [1,2-diethylbenzene]
-5 °C | C1=CC=C/C=CC=C1 [1,3,5,7-cyclooctatetraene]
64 °C | Clc1cc(Cl)cc(Cl)c1 [1,3,5-Trichlorobenzene]
55 °C | Clc1cc(Cl)c(I)c(Cl)c1 [1,3,5-trichloro-2-iodobenzene]
64 °C | Clc1cc(Cl)cc(Cl)c1 [1,3,5-trichlorobenzene]
4 °C | O=[N+]([O-])c1c(F)cc(F)cc1F [1,3,5-trifluoro-2-nitrobenzene]
-7 °C | CC(C)c1cc(C(C)C)cc(C(C)C)c1 [1,3,5-triisopropylbenzene]
53 °C | COc1cc(OC)cc(OC)c1 [1,3,5-trimethoxybenzene]
138 °C | O=c1n(CCO)c(=O)n(CCO)c(=O)n1CCO [1,3,5-tris(2-hydroxyethyl)cyanuric acid]
232 °C | O=C(Nc1ccccc1)Nc1ccccc1 [1,3-DIPHENYLUREA]
-42 °C | C1COCOC1 [1,3-Dioxane]
58 °C | OCc1cccc(CO)c1 [1,3-benzenedimethanol] [listing 1 of 2 here]
58 °C | OCc1cccc(CO)c1 [1,3-benzenedimethanol] [listing 2 of 2 here]
61 °C | c1ccc(P(CCCP(c2ccccc2)c2ccccc2)c2ccccc2)cc1 [1,3-bis(diphenylphosphino)propane]
150 °C | C(=C\c1cccc(/C=C/c2ccccc2)c1)/c1ccccc1 [1,3-bis[(E)-2-phenylethenyl]benzene]
36 °C | CC(=O)c1cccc(C(C)=O)c1 [1,3-diacetylbenzene]
125 °C | Oc1cc(O)c2ccccc2c1 [1,3-dihydroxynaphthalene]
-23 °C | CN1CCCN(C)C1=O [1,3-dimethyl-3,4,5,6-tetrahydro-2(1h)-pyrimidinone]
-95 °C | C1COCO1 [1,3-dioxolane]
82 °C | OC(COc1ccccc1)COc1ccccc1 [1,3-diphenoxy-2-propanol]

melting point | SMILES
33 °C | O=C(Cc1ccccc1)Cc1ccccc1 [1,3-diphenylacetone] [listing 1 of 2 here]
34 °C | O=C(Cc1ccccc1)Cc1ccccc1 [1,3-diphenylacetone] [listing 2 of 2 here]
-21 °C | c1ccc(CCCc2ccccc2)cc1 [1,3-diphenylpropane]
91 °C | Cc1ccc(S(=O)(=O)OCCCOS(=O)(=O)c2ccc(C)cc2)cc1 [1,3-propanediol di-p-toluenesulfonate]
-79 °C | SCCCS [1,3-propanedithiol]
119 °C | OCc1ccc(CO)cc1 [1,4-benzenedimethanol]
174 °C | NC(=S)C1COc2ccccc2O1 (centres undefined) [1,4-benzodioxane-2-thiocarboxamide]
90 °C | Cc1ccc(S(=O)(=O)OC[C@@H]2OC(C)(C)O[C@H]2COS(=O)(=O)c2ccc(C)cc2)cc1 [1,4-di-o-tosyl-2,3-o-isopropylidene-l-threitol]
84 °C | O=[N+]([O-])c1cc(Br)ccc1Br [1,4-dibromo-2-nitrobenzene]
21 °C | Clc1ccc(Cl)c(I)c1 [1,4-dichloro-2-iodobenzene]
-43 °C | CCc1ccc(CC)cc1 [1,4-diethylbenzene]
131 °C | Ic1ccc(I)cc1 [1,4-diiodobenzene]
61 °C | OC1COC2C(O)COC12 (centres undefined) [1,4:3,6-dianhydrohexitol]
110 °C | Cc1cc(=O)n(-c2ccccc2)n1C [1,5-Dimethyl-2-phenyl-1,2-dihydro-3H-pyrazol-3-one]
158 °C | Nc1cccc2c(N)cccc12 [1,5-Naphthalenediamine]
164 °C | CC(C)CCCC(C)C1CCC2C3CCC45CCC(=O)C4C5(C)C3CCC12C (centres undefined) [1,5-cyclocholestan-2-one]
-69 °C | C1=CCCC=CCC1 [1,5-cyclooctadiene]
-141 °C | C=CCCC=C [1,5-hexadiene]
41 °C | NCCCCCCN [1,6-diaminohexane]
59 °C | COc1ccc2c(OC)cccc2c1 [1,6-dimethoxynaphthalene]
286 °C | O=[N+]([O-])c1ccc2c(c1)-c1cccc([N+](=O)[O-])c1C2 [1,6-dinitro-9H-fluorene]
45 °C | OCCCCCCO [1,6-hexanediol]
225 °C | O=C1c2c(O)ccc([N+](=O)[O-])c2C(=O)c2c([N+](=O)[O-])ccc(O)c21 [1,8-Dihydroxy-4,5-dinitro-9,10-anthraquinone]
181 °C | O=C1c2c(O)cccc2Cc2cccc(O)c21 [1,8-Dihydroxyanthracen-9(10H)-one]
47 °C | OCCCCCCCCCO [1,9-nonanediol]
83 °C | OCCCCCCCCCCCCO [1,12-dodecanediol]
127 °C | O=C(O)CCCCCCCCCCCCCCCCCCC(=O)O [1,18-octadecanedicarboxylic acid]
